The record followed here is ChEMBL document CHEMBL1201862, “PubChem BioAssay data set” (2004).

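Test compounds were applied to cells in 96-well plates for 48 hours at 5 doses. GI50 = concentration required for 50% inhibition of growth.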 Activity calls are given as the source filed them. Cut-off read from the data, not from the text of the source: active = GI50 up to about 1.1 µM and inactive = higher. Some results are limits rather than exact numbers.

Among the test systems are SK-MEL-2; Hs-578T; ACHN; HL-60; PC-3; IGROV-1; K562; SW-620; SK-MEL-5; SF-539; HCT-116; OVCAR-8; U-251; LOX IMVI; KM12; SR; NCI-H226; NCI-H460; CCRF-CEM; A498.
Experiment in all cases: NCI anticancer screen, dose series, 48 h

In the case of `O=Cc1ccc(-c2ccc(S(=O)(=O)O)cc2)o1`, the GI50 in the test on SK-MEL-2, in the test on Hs-578T, in the test on ACHN, with HL-60, in the test on PC-3 and with IGROV-1 was > 100 µM (inactive) throughout. Moreover, the GI50 in the test with K562, with SW-620, with SK-MEL-5, in the test with SF-539, in the test on HCT-116 and with OVCAR-8 was > 100 µM (inactive) in each case. The GI50 with U-251, in the test with LOX IMVI, in the test with KM12, in the test on SR, with NCI-H226 and in the test with NCI-H460 was > 100 µM (inactive) throughout. Also, the results for the GI50 with CCRF-CEM and with A498 were > 10 µM (inactive) and > 100 µM (inactive), respectively.
As for `CNCCCn1c2ccccc2c2c3c(c(-c4ccsc4)cc21)C(=O)NC3=O`, the GI50 with SK-MEL-2 was 0.0181 µM (active); with Hs-578T, 1.85 µM (inactive); with ACHN it was < 0.0192 µM (active); in the test on HL-60, 2.22 µM (inactive); in the test with PC-3, 0.178 µM (active); in the test with IGROV-1, 1.09 µM (active). The GI50 in the test with K562 is 2.81 µM (inactive); with SW-620, 1.36 µM (inactive); with SK-MEL-5 it was 0.735 µM (active); with SF-539, 0.0281 µM (active); with HCT-116, 1.4 µM (inactive); in the test with OVCAR-8 it was 0.281 µM (active). Besides, the GI50 with U-251 is 1.95 µM (inactive); with LOX IMVI it was 1.33 µM (inactive); in the test on KM12, 0.0174 µM (active); in the test on SR, < 0.01 µM (active); in the test with NCI-H226, 2.37 µM (inactive); in the test with NCI-H460 it was 1.35 µM (inactive). Further, the GI50 with CCRF-CEM is 0.216 µM (active); in the test on A498 it was < 0.0104 µM (active).
Consider `O=C1C2CCN(CC2)C1CN1CCOCC1` (stereo not given), for which the GI50 was 17.5 µM (inactive) in the test with SK-MEL-2; 29 µM (inactive) with Hs-578T; 2.01 µM (inactive) in the test on ACHN; 2.74 µM (inactive) with HL-60; 20 µM (inactive) in the test with PC-3; 19.3 µM (inactive) in the test on IGROV-1. Moreover, the GI50 in the test with K562 is 6.73 µM (inactive); with SW-620 it was 1.72 µM (inactive); in the test with SK-MEL-5, 17.1 µM (inactive); in the test with SF-539 it was 15.4 µM (inactive); in the test on HCT-116 it was 1.87 µM (inactive); in the test with OVCAR-8 it was 5.02 µM (inactive). The GI50 with U-251 was 11 µM (inactive); with LOX IMVI it was 5.16 µM (inactive); with KM12 it was 16.6 µM (inactive); in the test with SR, 6.1 µM (inactive); with NCI-H226, 13.6 µM (inactive); with NCI-H460, 17.7 µM (inactive). Moreover, the GI50 in the test with CCRF-CEM was 6.98 µM (inactive); in the test on A498 it was 16.8 µM (inactive).
Take `COC(=O)/C=C\[C@H]1[C@H](C)N1S(=O)(=O)c1ccc(C)cc1` (stereo not given in full): the GI50 in the test on SK-MEL-2, in the test on Hs-578T, in the test on ACHN, with HL-60, in the test with PC-3 and in the test on IGROV-1 was > 100 µM (inactive) throughout. Further, the GI50 in the test on K562, in the test on SW-620, in the test with SK-MEL-5, in the test on SF-539, in the test with HCT-116 and with OVCAR-8 was > 100 µM (inactive) throughout. For the same compound, the GI50 in the test on U-251, in the test on LOX IMVI, in the test with KM12, in the test with SR, in the test with NCI-H226 and in the test with NCI-H460 was > 100 µM (inactive) in each case. Also, the GI50 was 91 µM (inactive) in the test on CCRF-CEM and > 100 µM (inactive) in the test with A498.
Regarding `c1ccc2c(c1)SCCC2NC1=NCCO1` (stereo not given), the GI50 in the test with SK-MEL-2, in the test with Hs-578T, in the test on ACHN, with HL-60, in the test with PC-3 and in the test on IGROV-1 was > 100 µM (inactive) each time. The GI50 in the test with K562, in the test with SW-620, in the test with SK-MEL-5, in the test on SF-539, with HCT-116 and with OVCAR-8 was > 100 µM (inactive) in each case. Moreover, the GI50 with U-251, in the test on LOX IMVI, with KM12, in the test with SR, with NCI-H226 and in the test on NCI-H460 was > 100 µM (inactive) throughout. For the same compound, the GI50 with CCRF-CEM and with A498 was > 100 µM (inactive) throughout.
In the case of `CC(=O)OCc1cc2c(s1)C(=O)c1sccc1C2=O`, the GI50 with SK-MEL-2 is 0.0935 µM (active); with Hs-578T, 0.157 µM (active); in the test on ACHN, 0.0881 µM (active); with HL-60, 0.29 µM (active); with PC-3, 0.194 µM (active); in the test with IGROV-1 it was 1.46 µM (inactive). Further, the GI50 is 0.277 µM (active) in the test on K562; 0.104 µM (active) in the test with SW-620; 0.0426 µM (active) with SK-MEL-5; 0.115 µM (active) in the test with SF-539; 1.74 µM (inactive) with HCT-116; 0.183 µM (active) in the test on OVCAR-8. Besides, the GI50 with U-251 was 0.248 µM (active); in the test with LOX IMVI, < 0.0182 µM (active); in the test on KM12 it was 0.234 µM (active); with SR it was 1.89 µM (inactive); in the test with NCI-H226, 0.355 µM (active); in the test with NCI-H460, 0.175 µM (active). In addition, the values for the GI50 in the test on CCRF-CEM and in the test on A498 were 0.383 µM (active) and 1.82 µM (inactive), respectively.
In the case of `Cc1ccc(/C=C2\Cc3cc(C)c(C)cc3C2=O)c(C(=O)O)c1`, the GI50 was 45.6 µM (inactive) with SK-MEL-2; 37.9 µM (inactive) in the test on Hs-578T; 46.3 µM (inactive) in the test with ACHN; 54.3 µM (inactive) in the test with HL-60; 22.3 µM (inactive) in the test on PC-3; 37.8 µM (inactive) in the test on IGROV-1. Further, the GI50 in the test on K562 was 44.1 µM (inactive); with SW-620 it was 34.6 µM (inactive); in the test on SK-MEL-5 it was 29.1 µM (inactive); in the test on SF-539 it was 13.7 µM (inactive); with HCT-116 it was 32.1 µM (inactive); with OVCAR-8, 43.5 µM (inactive). For the same compound, the GI50 is 26.1 µM (inactive) in the test on U-251; 31 µM (inactive) with LOX IMVI; 35.8 µM (inactive) in the test with KM12; 52.2 µM (inactive) in the test with SR; 19.3 µM (inactive) in the test with NCI-H226; 33.7 µM (inactive) in the test with NCI-H460. The GI50 in the test with CCRF-CEM is 27 µM (inactive); in the test with A498, 22.8 µM (inactive).
`Cc1cc([C@H](C#N)c2nc3ccccc3[nH]2)nc(Cl)n1`: the GI50 in the test on SK-MEL-2 was 26.5 µM (inactive); with Hs-578T, > 100 µM (inactive); in the test on ACHN, 38.2 µM (inactive); in the test with HL-60, 19.2 µM (inactive); with PC-3, 30.9 µM (inactive); in the test with IGROV-1, 54.5 µM (inactive). The GI50 was > 100 µM (inactive) in the test on K562; 24.2 µM (inactive) in the test on SW-620; 13.7 µM (inactive) in the test with SK-MEL-5; 61.9 µM (inactive) with SF-539; 37.8 µM (inactive) with HCT-116; 30.4 µM (inactive) with OVCAR-8. In addition, the GI50 in the test with U-251 is 23.6 µM (inactive); with LOX IMVI it was 38.8 µM (inactive); in the test on KM12, 14.9 µM (inactive); in the test on SR, 54.8 µM (inactive); in the test on NCI-H226, 48 µM (inactive); in the test with NCI-H460 it was 24.5 µM (inactive). For the same compound, the GI50 was 30.8 µM (inactive) in the test with CCRF-CEM and 41.8 µM (inactive) in the test on A498.
`CC(C)OP(=O)(OC(C)C)C(Nc1cccc(C(F)(F)F)c1)c1ccccc1` (stereo not given): the GI50 with SK-MEL-2 was 50.7 µM (inactive); in the test with Hs-578T, 75.3 µM (inactive); with ACHN it was 35.6 µM (inactive); in the test with HL-60 it was 14.7 µM (inactive); with PC-3, 37.2 µM (inactive); with IGROV-1, 79.4 µM (inactive). The GI50 is 23.4 µM (inactive) in the test on K562; > 10 µM (inactive) in the test with SW-620; 22.4 µM (inactive) in the test with SK-MEL-5; > 100 µM (inactive) with SF-539; 17.1 µM (inactive) in the test with HCT-116; 59.4 µM (inactive) in the test with OVCAR-8. In addition, the GI50 in the test with U-251 was 58.5 µM (inactive); in the test with LOX IMVI it was 39.4 µM (inactive); in the test on KM12, 40.6 µM (inactive); in the test with SR, 21.9 µM (inactive); with NCI-H226, 60 µM (inactive); with NCI-H460, 24 µM (inactive). Besides, the GI50 was 31 µM (inactive) in the test on CCRF-CEM and > 100 µM (inactive) in the test with A498.
